Experimental data taken from patent US10228380B2, “Methods for targeting membrane steroid transporters” (priority 2018, dated 2019).

How the values were obtained:
EcR = target: T1, EcR (Drosophila melanogaster, UniProt P34021); experiment: luciferase reporter assay in S2 culture cells with or without EcI RNAi; format: cell-based, D. melanogaster; settings: for effect of EcI RNAi treatment on the cells' response as measured by the luciferase assay: S2 culture cells, varying concentrations, 24 hours, EcI RNAi vs control cells without RNAi
T1 construct: endogenous in cells; host or cells: Drosophila S2 culture cells
T1 sequence (P34021 1-878): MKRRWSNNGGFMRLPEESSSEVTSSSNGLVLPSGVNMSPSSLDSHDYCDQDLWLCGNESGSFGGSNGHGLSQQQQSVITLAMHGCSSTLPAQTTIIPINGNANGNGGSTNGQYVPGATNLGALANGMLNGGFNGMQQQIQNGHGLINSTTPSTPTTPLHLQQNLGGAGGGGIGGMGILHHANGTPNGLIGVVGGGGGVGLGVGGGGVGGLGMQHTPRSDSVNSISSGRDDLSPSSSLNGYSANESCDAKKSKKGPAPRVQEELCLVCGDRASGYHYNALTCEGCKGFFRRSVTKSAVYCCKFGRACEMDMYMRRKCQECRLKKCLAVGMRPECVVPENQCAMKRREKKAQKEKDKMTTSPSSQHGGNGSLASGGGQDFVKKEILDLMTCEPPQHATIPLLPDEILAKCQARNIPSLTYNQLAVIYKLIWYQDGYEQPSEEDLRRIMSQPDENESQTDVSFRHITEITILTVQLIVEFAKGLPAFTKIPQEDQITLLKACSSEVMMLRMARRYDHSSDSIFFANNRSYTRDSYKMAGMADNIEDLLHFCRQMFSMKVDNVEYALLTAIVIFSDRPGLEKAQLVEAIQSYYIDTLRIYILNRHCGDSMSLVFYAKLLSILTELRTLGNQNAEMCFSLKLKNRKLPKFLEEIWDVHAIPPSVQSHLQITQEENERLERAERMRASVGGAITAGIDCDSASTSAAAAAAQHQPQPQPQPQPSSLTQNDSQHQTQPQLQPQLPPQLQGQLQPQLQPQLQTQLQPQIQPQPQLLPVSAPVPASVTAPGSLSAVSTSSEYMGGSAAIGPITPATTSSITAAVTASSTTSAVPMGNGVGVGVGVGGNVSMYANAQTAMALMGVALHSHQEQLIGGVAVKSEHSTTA
T1 sequence (P20153 1-508 partner): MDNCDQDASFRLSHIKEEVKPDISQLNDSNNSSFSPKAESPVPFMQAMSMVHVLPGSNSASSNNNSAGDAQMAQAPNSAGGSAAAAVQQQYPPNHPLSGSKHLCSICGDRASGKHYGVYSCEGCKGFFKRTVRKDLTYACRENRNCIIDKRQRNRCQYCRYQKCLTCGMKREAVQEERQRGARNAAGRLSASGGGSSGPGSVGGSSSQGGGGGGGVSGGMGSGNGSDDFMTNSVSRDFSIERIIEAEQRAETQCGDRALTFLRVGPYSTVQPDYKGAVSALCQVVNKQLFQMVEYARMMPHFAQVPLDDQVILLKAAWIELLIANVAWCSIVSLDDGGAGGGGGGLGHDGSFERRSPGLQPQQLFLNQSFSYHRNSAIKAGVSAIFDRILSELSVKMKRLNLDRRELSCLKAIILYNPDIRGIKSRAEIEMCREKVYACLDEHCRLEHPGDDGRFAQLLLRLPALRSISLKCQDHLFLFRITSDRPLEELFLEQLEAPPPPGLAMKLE
Experimental: FIG. 3 is a graph of the fold change of D. melanogaster EcR response after incubation of S2 culture cells for 24 hours in varying concentrations of 20E (left graph) or chromafenozide (CF; middle graph), as measured by luciferase reporter assay. The right graph is a time-course analysis of EcR-mediated luciferase activity in S2 culture cells treated with 10^−7M of 20E. In each graph, the control data is the solid top line, and the dashed bottom line is data of cells treated with EcI RNAi. Each point represents mean±SD; * indicates p<0.05 from Student's t-test compared to control; ** indicates p<0.01 from Student's t-test compared to control.
FIG. 5A depicts a schematic of a luciferase reporter assay in a cell derived from an arthropod cell line, for determining transport of 20E by the membrane steroid hormone transporter encoded by ecdysone importer (EcI).
As described above, in some embodiments, the transcriptional activity of a steroid hormone nuclear receptor is used to evaluate the transport of a steroid hormone across the cell membrane of an initial cell, or a comparative cell. In some variations, the luciferase reporter assay is used to measure the transcriptional activity of the steroid hormone nuclear receptor. For example, with reference to FIG. 5A and FIG. 5B, depicted are schemes showing the use of a luciferase reporter assay in an S2 cell (FIG. 5A) or in a HEK cell (FIG. 5B) to evaluate the transcriptional activity of the nuclear receptor encoded by the gene ecdysone receptor (EcR).
S2 culture cells treated with EcI RNAi were incubated with varying concentrations of 20E or with chromafenozide (CF) for 24 hours, and their response was monitored using a luciferase reporter assay. The relative response of the treated cells was compared to control cells, which were incubated with 20E or CF but not treated with RNAi. […] CF is a non-steroidal EcR agonist, and is expected to enter the cells through an unknown transporter distinct from EcI.

EcI and EcR = target: T2, EcI and EcR (Drosophila melanogaster, UniProt P34021); experiment: luciferase reporter assay in HEK culture cells transfected with EcR or with EcI and EcR; format: cell-based, D. melanogaster; settings: varying concentrations, 24 hours
T2 construct: expressed in transfected cells; host or cells: human HEK cells
T2 sequence (P34021 1-878): T1 sequence (P34021 1-878)
Experimental: FIG. 4 is a relative luciferase reporter activity in HEK culture cells treated for 24 h with 20E. Response of the cells transfected with EcR is the solid bottom line; cells transfected with EcR and EcI is the dashed top line. Each point represents mean±SEM; ** indicates p<0.01 from Student's t-test compared to control.
FIG. 5B depicts a schematic of a luciferase reporter assay in a cell derived from a mammalian cell line, for determining transport of 20E by the membrane steroid hormone transporter encoded by ecdysone importer (EcI).
As described above, in some embodiments, the transcriptional activity of a steroid hormone nuclear receptor is used to evaluate the transport of a steroid hormone across the cell membrane of an initial cell, or a comparative cell. In some variations, the luciferase reporter assay is used to measure the transcriptional activity of the steroid hormone nuclear receptor. […]
Human HEK cells were transfected with EcI and EcR, and their response to incubation with varying concentrations of 20E for 24 hours was evaluated using the luciferase reporter assay. Control HEK cells that were transfected only with EcR were also evaluated.

SMILES	effect of EcI RNAi treatment on the cells' response over time (time-course of luciferase activity) (EcR; S2 cells treated with 10^−7 M, with or without RNAi)	effect of EcI RNAi treatment on the cells' response as measured by the luciferase assay (EcR)	response as measured by luciferase assay (EcI and EcR; control human HEK cells transfected only with EcR)	response as measured by luciferase assay (EcI and EcR; human HEK cells transfected with both EcI and EcR)
CC(C)(O)CC[C@@H](O)[C@](C)(O)[C@H]1CC[C@@]2(O)C3=CC(=O)[C@@H]4C[C@@H](O)[C@@H](O)C[C@]4(C)[C@H]3CC[C@]12C [20E, 20-hydroxyecdysone]	significantly decreased	significantly decreased	not responsive	responsive
Cc1cc(C)cc(C(=O)N(NC(=O)c2ccc3c(c2C)CCCO3)C(C)(C)C)c1 [CF, chromafenozide]	–	less effect	–	–
